Values of other authors as cited in US20240000727A1, “STABLE COATED SOLID PHARMACEUTICAL COMPOSITION OF AN OPIOID ANALGESIC AND AN ANTI-EPILEPTIC FOR PAIN” (LABORATORIOS SILANES S.A. DE C.V., priority 2020, published 2024).

Tested on: moderate to severe postoperative pain
Settings: intravenous or intramuscular; patients with moderate to severe postoperative pain

## COc1cccc([C@@]2(O)CCCC[C@@H]2CN(C)C)c1 [tramadol, (1R,2R)-2-[(dimethylamino)methyl]-1-(3-methoxyphenyl)cyclohexan-1-ol]
  Potency relative to nalbuphine: one-fifth as potent
  Potency relative to pethidine (meperidine): equivalent
